pKi: −log10 of the molar value.
Assays:
[1] = target: T1, Neuropeptide Y receptor type 5 (Mus musculus, UniProt O70342)
T1 sequence (O70342 whole entry): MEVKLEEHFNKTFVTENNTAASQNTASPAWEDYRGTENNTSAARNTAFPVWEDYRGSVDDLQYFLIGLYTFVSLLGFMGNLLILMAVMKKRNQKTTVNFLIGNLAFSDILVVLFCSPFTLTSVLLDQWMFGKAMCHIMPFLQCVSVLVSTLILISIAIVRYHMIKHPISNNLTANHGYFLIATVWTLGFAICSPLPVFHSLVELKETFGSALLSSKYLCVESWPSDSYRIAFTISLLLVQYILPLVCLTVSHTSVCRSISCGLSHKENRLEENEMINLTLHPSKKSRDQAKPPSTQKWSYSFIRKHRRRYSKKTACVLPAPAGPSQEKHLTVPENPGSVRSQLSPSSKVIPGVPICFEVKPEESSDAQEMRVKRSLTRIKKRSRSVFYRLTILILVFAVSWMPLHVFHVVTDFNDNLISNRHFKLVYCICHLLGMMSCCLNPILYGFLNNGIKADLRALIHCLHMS

[2] = target: T2, Neuropeptide Y receptor type 1 (Mus musculus, UniProt Q04573)
T2 sequence (Q04573 whole entry): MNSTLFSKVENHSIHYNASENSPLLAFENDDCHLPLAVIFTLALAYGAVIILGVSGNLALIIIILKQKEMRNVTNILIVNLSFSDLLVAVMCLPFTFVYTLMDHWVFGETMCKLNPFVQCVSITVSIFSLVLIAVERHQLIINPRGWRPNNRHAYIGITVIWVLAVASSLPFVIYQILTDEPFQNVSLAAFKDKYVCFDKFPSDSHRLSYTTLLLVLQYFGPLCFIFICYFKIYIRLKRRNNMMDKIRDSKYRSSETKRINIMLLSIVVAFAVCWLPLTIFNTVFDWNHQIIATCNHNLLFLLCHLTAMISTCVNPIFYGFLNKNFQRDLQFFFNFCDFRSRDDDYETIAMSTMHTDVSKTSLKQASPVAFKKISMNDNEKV

CC[C@H](C)[C@H](NC(=O)[C@H](Cc1ccc(O)cc1)NC(=O)[C@H](CCCNC(=N)N)NC(=O)[C@H](CCCNC(=N)N)NC(=O)[C@H](CC(C)C)NC(=O)[C@H](CC(=O)O)NC(=O)[C@H](C)NC(=O)[C@H](C)NC(=O)[C@H](Cc1ccc(O)cc1)NC(=O)[C@H](CCC(N)=O)NC(=O)[C@H](C)NC(=O)[C@H](CCSC)NC(=O)[C@H](CCC(N)=O)NC(=O)[C@H](CCC(=O)O)NC(=O)[C@@H]1CCCN1C(=O)[C@@H](NC(=O)[C@H](C)NC(=O)[C@H](CC(N)=O)NC(=O)[C@H](CC(=O)O)NC(=O)CNC(=O)[C@@H]1CCCN1C(=O)[C@H](Cc1ccc(O)cc1)NC(=O)[C@@H](NC(=O)[C@@H]1CCCN1C(=O)[C@H](CCC(=O)O)NC(=O)[C@H](CC(C)C)NC(=O)[C@@H]1CCCN1C(=O)[C@H](C)N)C(C)C)[C@@H](C)O)C(=O)N[C@@H](CC(N)=O)C(=O)N[C@@H](CCSC)C(=O)N[C@@H](CC(C)C)C(=O)N[C@H](C(=O)N[C@@H](CCCNC(=N)N)C(=O)N1CCC[C@H]1C(=O)N[C@@H](CCCNC(=N)N)C(=O)N[C@@H](Cc1ccc(O)cc1)C(N)=O)[C@@H](C)O [CAS_59763-91-6]
pKi [1]: 6.00
pKi [2]: 6.91
